Reference: patent publication US9498483B2, “2,3,5-trisubstituted thiophene compounds and uses thereof” (priority 2010, dated 2016)

Key:
[1] = system: HCV replicon I389luc-ubi-neo/NS3-3′/ET in ET (Huh-lucubineo-ET) cells; assay: Replicon assay (Biological Example 2), luciferase readout; format: cell-based; conditions: Hepatitis C virus
How it was run: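 EC50 values come from Hill fits of % inhibition of replicon-driven firefly luciferase, relative to no-compound wells. Compounds were serially diluted (10 points, 3-fold, 0.1 nM–50 μM final, 0.5% DMSO) onto ET replicon cells and read after 48 h.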

[2] = target: T1, HCV polymerase (Hepatitis C virus genotype 1b, UniProt Q9WMX2); assay: Polymerase assay of Biological Example 1 (IC50 values of Table 3); format: biochemical; conditions: IC50 values of Table 3, polymerase assay of Biological Example 1; read-out: NS5B-enzyme3
T1 construct: (His)6 (C); made in house; host or cells: XL-1 cells (E. coli, by own knowledge)

[3] = ET cells, luciferase activity 48 hours after compound

`CC(C)(C)C#Cc1cc(N2C(=O)[C@](C)(CC#N)OC[C@H]2C2CCCCC2)c(C(=O)O)s1` [Compound 312, 3-((2S,5R)-2-Cyanomethyl-5-cyclohexyl-2-methyl-3-oxo-morpholin-4-yl)-5-(3,3-dimethyl-but-1-ynyl)-thiophene-2-carboxylic acid] was tested, and the IC50 [1, 3] was ≤ 100 nM and the IC50 [2] was 2 nM.

With `CC(C)(C)C#Cc1cc(N2C(=O)C(O)CCC2C2CCCCC2)c(C(=O)O)s1` (centres unmarked) [Compound 313, 3-(6-Cyclohexyl-3-hydroxy-2-oxo-piperidin-1-yl)-5-(3,3-dimethyl-but-1-ynyl)-thiophene-2-carboxylic acid] the IC50 [1, 3] was ≤ 100 nM and the IC50 [2] was 31.5 nM.

For `Cc1ccc(-c2cc(N3C(=O)C(C)(C)OC[C@H]3C3CCCCC3)c(C(=O)O)s2)cc1` [Compound 314, 3-((R)-5-Cyclohexyl-2,2-dimethyl-3-oxo-morpholin-4-yl)-5-p-tolyl-thiophene-2-carboxylic acid], the IC50 [1, 3] was ≤ 100 nM and the IC50 [2] was 6 nM.

In the case of `CC1(C)OC[C@@H](C2CCCCC2)N(c2cc(-c3ccc(Cl)cc3)sc2C(=O)O)C1=O` [Compound 315, 5-(4-Chloro-phenyl)-3-((R)-5-cyclohexyl-2,2-dimethyl-3-oxo-morpholin-4-yl)-thiophene-2-carboxylic acid], the IC50 [1, 3] is reported as ≤ 100 nM and the IC50 [2] is reported as 6 nM.

For `CC(O)C1CCC(C2CCCCC2)N(c2cc(C#CC(C)(C)C)sc2C(=O)O)C1=O` (centres unmarked) [Compound 316, 3-[6-Cyclohexyl-3-(1-hydroxy-ethyl)-2-oxo-piperidin-1-yl]-5-(3,3-dimethyl-but-1-ynyl)-thiophene-2-carboxylic acid], the IC50 [1, 3] was ≤ 100 nM and the IC50 [2] was 3 nM.

With `Cc1ccc(-c2cc(N3C(=O)C(O)CCC3C3CCCCC3)c(C(=O)O)s2)cc1` (centres unmarked) [Compound 317, 3-(6-Cyclohexyl-3-hydroxy-2-oxo-piperidin-1-yl)-5-p-tolyl-thiophene-2-carboxylic acid] the IC50 ([1]; between 100 nM and 5.0 uM) was 100 to 5000 nM and the IC50 [2] was 24.1 nM.

`CC(C)(C)C#Cc1cc(N2C(=O)[C@](C)(CCC(C)(C)O)OC[C@H]2C2CCCCC2)c(C(=O)O)s1` [Compound 318, 3-[(2S,5R)-5-Cyclohexyl-2-(3-hydroxy-3-methyl-butyl)-2-methyl-3-oxo-morpholin-4-yl]-5-(3,3-dimethyl-but-1-ynyl)-thiophene-2-carboxylic acid] was tested, and the IC50 [1, 3] was ≤ 100 nM and the IC50 [2] was 14 nM.

For `CC(C)(C)C#Cc1cc(N2C(=O)[C@@](C)(CCC(C)(C)O)OC[C@H]2C2CCCCC2)c(C(=O)O)s1` [Compound 319, 3-[(2R,5R)-5-Cyclohexyl-2-(3-hydroxy-3-methyl-butyl)-2-methyl-3-oxo-morpholin-4-yl]-5-(3,3-dimethyl-but-1-ynyl)-thiophene-2-carboxylic acid], the IC50 [1, 3] was ≤ 100 nM and the IC50 [2] was 4 nM.

In the case of `C[C@@H](O)CC[C@]1(C)OC[C@@H](C2CCCCC2)N(c2cc(C#CC(C)(C)C)sc2C(=O)O)C1=O` [Compound 320, 3-[(2S,5R)-5-Cyclohexyl-2-((R)-3-hydroxy-butyl)-2-methyl-3-oxo-morpholin-4-yl]-5-(3,3-dimethyl-but-1-ynyl)-thiophene-2-carboxylic acid], the IC50 [1, 3] is reported as ≤ 100 nM and the IC50 [2] is reported as 6 nM.

`C[C@@H](O)CC[C@@]1(C)OC[C@@H](C2CCCCC2)N(c2cc(C#CC(C)(C)C)sc2C(=O)O)C1=O` [Compound 321, 3-[(2R,5R)-5-Cyclohexyl-2-((R)-3-hydroxy-butyl)-2-methyl-3-oxo-morpholin-4-yl]-5-(3,3-dimethyl-but-1-ynyl)-thiophene-2-carboxylic acid] was tested, and the IC50 [1, 3] was ≤ 100 nM and the IC50 [2] was 2 nM.

For `CC(C)(C)C#Cc1cc(N2C(=O)[C@@H](O)CC[C@H]2C2CCCCC2)c(C(=O)O)s1` [Compound 322], the IC50 [1, 3] was ≤ 100 nM and the IC50 [2] was 6 nM.

`CC(C)(C)C#Cc1cc(N2C(=O)[C@@](C)(CCO)OC[C@H]2C2CCCCC2)c(C(=O)O)s1` [Compound 323, 3-[(2R,5R)-5-Cyclohexyl-2-(2-hydroxy-ethyl)-2-methyl-3-oxo-morpholin-4-yl]-5-(3,3-dimethyl-but-1-ynyl)-thiophene-2-carboxylic acid] was tested, and the IC50 [1, 3] was ≤ 100 nM and the IC50 [2] was 3 nM.

`Cc1ccc(-c2cc(N3C(=O)C(C)(O)CCC3C3CCCCC3)c(C(=O)O)s2)cc1` (centres unmarked) [Compound 324, 3-(6-Cyclohexyl-3-hydroxy-3-methyl-2-oxo-piperidin-1-yl)-5-p-tolyl-thiophene-2-carboxylic acid] was tested, and the IC50 ([1]; between 100 nM and 5.0 uM) was 100 to 5000 nM and the IC50 [2] was 85 nM.

`CC(C)(C)C#Cc1cc(N2C(=O)C3(CCOCC3)OC[C@H]2C2CCCCC2)c(C(=O)O)s1` [Compound 325, 3-((R)-3-Cyclohexyl-5-oxo-1,9-dioxa-4-aza-spiro[5.5]undec-4-yl)-5-(3,3-dimethyl-but-1-ynyl)-thiophene-2-carboxylic acid] was tested, and the IC50 [1, 3] was ≤ 100 nM and the IC50 [2] was 6 nM.

In the case of `CC(C)(C)C#Cc1cc(N2C(=O)[C@](C)(CC(O)CO)OC[C@H]2C2CCCCC2)c(C(=O)O)s1` (stereo partly drawn) [Compound 327, 3-[(2S,5R)-5-Cyclohexyl-2-(2,3-dihydroxy-propyl)-2-methyl-3-oxo-morpholin-4-yl]-5-(3,3-dimethyl-but-1-ynyl)-thiophene-2-carboxylic acid], the IC50 [1, 3] is reported as ≤ 100 nM and the IC50 [2] is reported as 4 nM.

In the case of `CC(C)(C)C#Cc1cc(N2C(=O)[C@](C)(CCO)OC[C@H]2C2CCCCC2)c(C(=O)O)s1` [Compound 328, 3-[(2S,5R)-5-Cyclohexyl-2-(2-hydroxy-ethyl)-2-methyl-3-oxo-morpholin-4-yl]-5-(3,3-dimethyl-but-1-ynyl)-thiophene-2-carboxylic acid], the IC50 [1, 3] is reported as ≤ 100 nM and the IC50 [2] is reported as 6 nM.

In the case of `CC(C)(C)C#Cc1cc(N2C(=O)C(CO)OC[C@H]2C2CCCCC2)c(C(=O)O)s1` (stereo partly drawn) [Compound 329, 3-((R)-5-Cyclohexyl-2-hydroxymethyl-3-oxo-morpholin-4-yl)-5-(3,3-dimethyl-but-1-ynyl)-thiophene-2-carboxylic acid], the IC50 [1, 3] is reported as ≤ 100 nM and the IC50 [2] is reported as 5 nM.

In the case of `CC(C)(C)C#Cc1cc(N2C(=O)[C@@](C)(CC(O)CO)OC[C@H]2C2CCCCC2)c(C(=O)O)s1` (stereo partly drawn) [Compound 330, 3-[(2R,5R)-5-Cyclohexyl-2-(2,3-dihydroxy-propyl)-2-methyl-3-oxo-morpholin-4-yl]-5-(3,3-dimethyl-but-1-ynyl)-thiophene-2-carboxylic acid], the IC50 [1, 3] is reported as ≤ 100 nM and the IC50 [2] is reported as 3 nM.

With `CC(C)(C)C#Cc1cc(N2C(=O)[C@H](CC(O)CO)OC[C@H]2C2CCCCC2)c(C(=O)O)s1` (stereo partly drawn) [Compound 331, 3-[(2S,5R)-5-Cyclohexyl-2-(2,3 dihydroxy-propyl)-3-oxo-morpholin-4-yl]-5-(3,3-dimethyl-but-1-ynyl)-thiophene-2 carboxylic acid] the IC50 ([1]; between 100 nM and 5.0 uM) was 100 to 5000 nM and the IC50 [2] was 8 nM.

For `CC(C)(C)C#Cc1cc(N2C(=O)[C@H](CCO)OC[C@H]2C2CCCCC2)c(C(=O)O)s1` [Compound 332, 3-[(2S,5R)-5-Cyclohexyl-2-(2-hydroxy-ethyl)-3-oxo-morpholin-4-yl]-5-(3,3-dimethyl-but-1-ynyl)-thiophene-2-carboxylic acid], the IC50 [1, 3] was ≤ 100 nM and the IC50 [2] was 12 nM.

With `CC(C)(C)C#Cc1cc(N2C(=O)C(CCO)(CCO)OC[C@H]2C2CCCCC2)c(C(=O)O)s1` [Compound 333, 3-[(R)-5-Cyclohexyl-2,2-bis-(2-hydroxy-ethyl)-3-oxo-morpholin-4-yl]-5-(3,3-dimethyl-but-1-ynyl)-thiophene-2-carboxylic acid] the IC50 ([1]; between 100 nM and 5.0 uM) was 100 to 5000 nM and the IC50 [2] was 10 nM.

`CC(C)(C)C#Cc1cc(N2C(=O)[C@H](O)CC[C@H]2C2CCCCC2)c(C(=O)O)s1` [Compound 334, 3-((3R,6S)-6-Cyclohexyl-3-hydroxy-2-oxo-piperidin-1-yl)-5-(3,3-dimethyl-but-1-ynyl)-thiophene-2-carboxylic acid] was tested, and the IC50 [1, 3] was ≤ 100 nM and the IC50 [2] was 3 nM.

For `CC(C)(C)C#Cc1cc(N2C(=O)CCCC[C@H]2C2CCCCC2)c(C(=O)O)s1` [Compound 335, 3-((S)-2-Cyclohexyl-7-oxo-azepan-1-yl)-5-(3,3-dimethyl-but-1-ynyl)-thiophene-2-carboxylic acid], the IC50 ([1]; between 100 nM and 5.0 uM) was 100 to 5000 nM and the IC50 [2] was 24 nM.

In the case of `C[C@@H](O)C[C@H]1OC[C@@H](C2CCCCC2)N(c2cc(C#CC(C)(C)C)sc2C(=O)O)C1=O` [Compound 336, 3-[(2R,5R)-5-Cyclohexyl-2-((R)-2-hydroxy-propyl)-3-oxo-morpholin-4-yl]-5-(3,3-dimethyl-but-1-ynyl)-thiophene-2-carboxylic acid], the IC50 [1, 3] is reported as ≤ 100 nM and the IC50 [2] is reported as 3 nM.

With `C[C@H](O)C[C@H]1OC[C@@H](C2CCCCC2)N(c2cc(C#CC(C)(C)C)sc2C(=O)O)C1=O` [Compound 337, 3-[(2R,5R)-5-Cyclohexyl-2-((S)-2-hydroxy-propyl)-3-oxo-morpholin-4-yl]-5-(3,3-dimethyl-but-1-ynyl)-thiophene-2-carboxylic acid] the IC50 [1, 3] was ≤ 100 nM and the IC50 [2] was 2 nM.

Work on `CC(C)(C)C#Cc1cc(N2C(=O)[C@H](CCCCO)OC[C@H]2C2CCCCC2)c(C(=O)O)s1` [Compound 338, 3-[(2S,5R)-5-Cyclohexyl-2-(4-hydroxy-butyl)-3-oxo-morpholin-4-yl]-5-(3,3-dimethyl-but-1-ynyl)-thiophene-2-carboxylic acid] yielded an IC50 ([1]; between 100 nM and 5.0 uM) of 100 to 5000 nM and an IC50 [2] of 31 nM.

`CC(C)(C)C#Cc1cc(N2C(=O)C(CCCO)CC[C@H]2C2CCCCC2)c(C(=O)O)s1` (stereo partly drawn) [Compound 339, 3-[(S)-6-Cyclohexyl-3-(3-hydroxy-propyl)-2-oxo-piperidin-1-yl]-5-(3,3-dimethyl-but-1-ynyl)-thiophene-2-carboxylic acid] was tested, and the IC50 [1, 3] was ≤ 100 nM and the IC50 [2] was 8 nM.

`CC(C)(C)C#Cc1cc(N2C(=O)C(N)CC[C@H]2C2CCCCC2)c(C(=O)O)s1` (stereo partly drawn) [Compound 340, 3-((S)-3-Amino-6-cyclohexyl-2-oxo-piperidin-1-yl)-5-(3,3-dimethyl-but-1-ynyl)-thiophene-2-carboxylic acid] was tested, and the IC50 [1, 3] was ≤ 100 nM and the IC50 [2] was 8 nM.
